Measured values: paper PMC7432475, “β-Carbolines in Experiments on Laboratory Animals” (International Journal of Molecular Sciences, 2020)
pIC50: −log10 of the molar value. ≈ marks a conversion by molar mass, not a printed value. Like-named read-outs stand apart in the source and are kept apart here.

Assays:
[1] = system: primary mesencephalic dopaminergic cell culture derived from embryonic mice; conditions: cited from earlier work
male Sprague Dawley rats [2] = format: in vivo; conditions: stage 1; rats that received the lowest amounts of H and NH
male Sprague Dawley rats [3] = experiment: Battery of behavioral tests, stage 1; format: in vivo; conditions: individual chemical standards added to the diet
Experimental: The experiment was conducted in the animal housing facility at the Institute of Human Nutrition and Dietetics, Poznań University of Life Sciences, under conditions of natural light and with the temperature maintained during the experiment at 19–22 °C, and with a relative humidity of 55–60%. Seventeen-month-old male Sprague Dawley rats originating from a Charles River Laboratories farm were used in the experiment. The age of the rats corresponded to 51 years of human life. For the first ten days of the experiment (the adaptation period), the rats were fed ad libitum with a standard laboratory diet and water. The experiment was conducted in two stages. […] The food consumption of the individual rats was monitored daily by measuring the difference between the amount of diet supplied each day and the amount of diet remaining. Feces were collected for ten days in the seventh week of the experiment, and water content, protein, fat, dietary fiber, and ash were determined using standard analytical methods. Body mass was measured every seven days using an electronic balance. […]
A classic labyrinth (110 × 65 cm) was used, with corridors about […], located on the table raised 50 cm from the ground. […] The time needed to complete the route between the two points of departure and arrival was measured. […]

[4] = for share of the carboline taken in that was found in the blood: from average body mass, feed consumption and concentration in the feed; for increase of the carboline level in plasma versus control diet / Harman (ng/mL) in animal blood: stage I; for increase of the carboline level in plasma versus control diet: at the greatest addition to the diet; for Harman (ng/mL) in animal blood: fourteen weeks, n = 6
AG20445 (PD cells) = experiment: Real-time cell proliferation analysis by xCELLigence system, AG20445; format: cell-based, human; conditions: 24 h after treatment, range of 1–50 µM
Experimental: (§1) Normal human lung fibroblasts (MRC-5) were purchased from ECACC, and human skin fibroblasts isolated from a person with Parkinson’s disease (AG20445) were purchased from the Coriell Institute. The cells were cultured in Eagle’s Minimum Essential Medium (EMEM, Corning) supplemented with antibiotics (Penicillin-Streptomycin Solution (ATCC) and 10% or 15% FBS (Sigma-Aldrich), respectively. Both cell lines were cultured at 37 °C, with the addition of 5% CO2 to the atmosphere.
(§2) Cell proliferation analysis was performed using an xCELLigence system (Roche). The cells were seeded in sixteen-well E-plates (Roche) at a density of 7.5 × 10^3 per well. After 24 h, the cells were treated with H, NH, and both in final concentrations of 1, 5, 10, 25, 50, and 100 μM. The control cells were cultured in the supplemented medium only. The real-time proliferation of the cells was estimated based on impedance measurement, expressed as a Cell Index (CI) value. The CI was monitored at 30 min intervals from the time of plating for six days.

MRC-5 cells [5] = experiment: Apoptosis/necrosis assay (Casp 3/7-FITC/7-AAD flow cytometry), MRC-5; format: cell-based, human; conditions: 24 h, 5, 10, and 25 µM (Figure 2c)
Experimental: as §1
(§3) The apoptosis/necrosis assay was performed by double staining with CellEvent Caspase 3/7-FITC (Thermo Fisher Scientific) and 7-aminoactinomycin D (BD Pharmigen) fluorescent dyes. Briefly, the cells (4 × 10^5) were seeded onto six-well plates and incubated until 70–80% confluency. On the next day, the cells were treated with β-carbolines in a final concentration of 5, 10, and 25 µM. Afterward, the cells were detached with trypsin (Thermo Fisher Scientific), washed twice with Dulbecco’s Phosphate Buffered Saline (Thermo Fisher Scientific), and stained with fluorescent dyes for 30 min at 37 °C in the dark, in line with the manufacturer’s protocol. Cells were analyzed immediately with 488 nm excitation using an Accuri C6 flow cytometer (Becton Dickinson).

[6] = in 100g, stage I
MRC-5 cells [7] = experiment: Real-time cell proliferation analysis by xCELLigence system, MRC-5; format: cell-based, human; conditions: for IC50 / pIC50: Homo sapiens, MRC5; for IC50: corresponds to ~50 µM, read-out: concentration giving 50% decrease in MRC-5 cell viability, converted; for pIC50: xCELLigence, read-out: concentration giving 50% decrease in MRC-5 cell viability; for cell proliferation rate compared to the control: 24 h after administration, 1–25 µM; for cytotoxic effect on the MRC-5 cell line: low concentration range (1–25 µM)
Experimental: as §1, §2

AG20445 cells = experiment: Apoptosis/necrosis assay (Casp 3/7-FITC/7-AAD flow cytometry), AG20445; format: cell-based, human; conditions: 24 h, 5, 10, and 25 µM (Figure S2b)
Experimental: as §1, §3

mice = system: mice; parameters: method as in PMID 16183262; conditions: H 5–15 mg/kg i.p., NH 2.5–10 mg/kg i.p.; cited from earlier work
α-synuclein = system: α-synuclein; parameters: method as in PMID 20374418; conditions: primary dopaminergic cell cultures; cited from earlier work
caspase-3 = system: caspase-3; parameters: method as in PMID 17913302; conditions: primary mesencephalic dopaminergic cell culture from embryonic mice; cited from earlier work
rats [8] = system: rats; parameters: method as in PMID 22380576; conditions: compared with controls; cited from earlier work
[9] = system: Artn, Bdnf, Egln1, Tgfb2, and Ncam1; parameters: method as in PMID 32285253; conditions: cited from earlier work
[10] = system: FAS, Gadd45a, Hspb1; Cxcl9, Irf1, Fasl, Icam1, Tnf, Vcam1; parameters: method as in PMID 17913302; conditions: cited from earlier work
monoamine oxidase = system: monoamine oxidase; parameters: method as in PMID 8957221; conditions: cited from earlier work
IA9 = system: IA9; parameters: method as in PMID 10612592; conditions: cited from earlier work
MCF-7 = system: MCF-7; parameters: method as in PMID 10612592; conditions: cited from earlier work
KB = system: KB; parameters: method as in PMID 10612592; conditions: cited from earlier work
A549 = system: A549; parameters: method as in PMID 10612592; conditions: cited from earlier work
U-87-MG = system: U-87-MG; parameters: method as in PMID 10612592; conditions: cited from earlier work
CAKI-1 = system: CAKI-1; parameters: method as in PMID 10612592; conditions: cited from earlier work
HEL = system: HEL; parameters: method as in PMID 10612592; conditions: cited from earlier work
rats [11] = system: rats; parameters: method as in PMID 23107644; conditions: the two higher doses (5.0 mg/kg and 7.5 mg/kg); cited from earlier work
[12] = system: yeast and mammalian cells; parameters: method as in PMID 17545209; conditions: cited from earlier work
SK-MEL-2 = system: SK-MEL-2; parameters: method as in PMID 10612592; conditions: cited from earlier work

## Cn1c2ccccc2c2cc[n+](C)cc21 [2,9-dimethyl-BC]
[1]
  ATP content: decreased
  free radical production: increased
  mitochondrial membrane potential: decreased
  respiratory activity: decreased
[1]; primary dopaminergic culture
  toxic effects on dopaminergic neurons and other cell constituents: highly toxic effects

## c1ccc2c(c1)[nH]c1cnccc12 [NH, norharman]
Male Sprague Dawley rats [2]
  Porsolt test: mobility: more mobile than the control animals
Male Sprague Dawley rats [3]
  effect on the animals' behavior: did not produce a very marked effect
[4]
  share of the carboline taken in that was found in the blood: about 0.5%
  increase of the carboline level in plasma versus control diet: increased two-fold
AG20445 (PD cells)
  CI values (proliferation): significant increase in CI values
MRC-5 cells [5]
  induction of apoptosis: do not induce apoptosis
[6]; group NH1 (8 µg NH/kg diet)
  IDF [g] (insoluble dietary fiber) in feces: 55,36 g
  SDF [g] (soluble dietary fiber) in feces: 0,04 g
[6]; group NH2 (12 µg NH/kg diet)
  IDF [g] (insoluble dietary fiber) in feces: 54,46 g
  SDF [g] (soluble dietary fiber) in feces: 0,06 g
[6]; group NH3 (16 µg NH/kg diet)
  IDF [g] (insoluble dietary fiber) in feces: 53,97 g
  SDF [g] (soluble dietary fiber) in feces: 0,07 g
MRC-5 cells [7]
  IC50: 8.41 µg/mL
  pIC50: ~4.30
  cytotoxic effect on the MRC-5 cell line: neither H nor NH showed any cytotoxic effect
MRC-5 cells [7]; MRC-5
  cell proliferation rate compared to the control: significant increase in the cell proliferation rate
MRC-5 cells [7]; MRC-5, final concentrations of 1, 5, and 10 μM
  proliferation rate (ranking): greatest proliferation rate
AG20445 cells
  induction of apoptosis: do not induce apoptosis
mice
  antidepressant action on mice: positive effects

## Cn1c2ccccc2c2ccncc21 [9-me-BC, 9-methyl-β-carboline]
α-synuclein
  content of α-synuclein: lowered
caspase-3
  caspase-3 activity: decrease of caspase-3 activity
Rats [8]
  acquisition in a hippocampus-dependent task: significantly accelerated acquisition
[9]
  gene expression of neurotrophic factors like Artn, Bdnf, Egln1, Tgfb2, and Ncam1: stimulated
[10]
  expression of inflammation-related genes like Cxcl9, Irf1, Fasl, Icam1, Tnf, and Vcam1: reduced
  expression of proteins in apoptosis-relevant pathways like FAS, Gadd45a, and Hspb1: downregulated
[1]; concentration-dependent manner
  number of dopaminergic neurons: capable of increasing the number of dopaminergic neurons
[1]; primary mesencephalic dopaminergic cell culture from embryonic mice
  number of necrotic cells: reduced the number of necrotic cells

## Cc1nccc2c1[nH]c1ccccc12 [H, harman]
Monoamine oxidase
  monoamine oxidase inhibition: potent monoamine oxidase inhibitor
Male Sprague Dawley rats [2]
  Porsolt test: mobility: more mobile than the control animals
IA9
  ED50: 6.1 µg/mL (≈ 33.5 µM)
MCF-7
  ED50: 19.0 µg/mL (≈ 104 µM)
KB
  ED50: 8.9 µg/mL (≈ 48.8 µM)
Male Sprague Dawley rats [3]
  effect on the animals' behavior: did not produce a very marked effect
[4]
  share of the carboline taken in that was found in the blood: about 0.15%
  increase of the carboline level in plasma versus control diet: increased by a factor of about four
[4]; group H1 = 10 µg H/kg of exp. diet
  Harman (ng/mL) in animal blood: 0.038 ng/mL
[4]; group H2 = 15 µg H/kg of exp. diet
  Harman (ng/mL) in animal blood: 0.052 ng/mL
[4]; group H3 = 20 µg H/kg of exp. diet
  Harman (ng/mL) in animal blood: 0.084 ng/mL
AG20445 (PD cells)
  CI values (proliferation): significant increase in CI values
A549
  ED50: 9.3 µg/mL (≈ 51 µM)
MRC-5 cells [5]
  induction of apoptosis: do not induce apoptosis
U-87-MG
  ED50: 19.0 µg/mL (≈ 104 µM)
MRC-5 cells [7]
  IC50: 9.11 µg/mL
  pIC50: ~4.30
  cytotoxic effect on the MRC-5 cell line: neither H nor NH showed any cytotoxic effect
MRC-5 cells [7]; MRC-5
  cell proliferation rate compared to the control: significant increase in the cell proliferation rate
AG20445 cells
  induction of apoptosis: do not induce apoptosis
CAKI-1
  ED50: 8.0 µg/mL (≈ 43.9 µM)
mice
  antidepressant action on mice: positive effects
HEL
  ED50: 9.8 µg/mL (≈ 53.8 µM)
Rats [11]
  errors in working memory: significantly fewer errors in working memory
[12]
  protective effect against H2O2 and paraquat oxidative agents: significant protective effect
SK-MEL-2
  ED50: > 20 µg/mL
